Measured values from article PMC9307329, “Enzymes Inhibition and Antioxidant Potential of Medicinal Plants Growing in Oman” (BioMed Research International, 2022).

Molecular target: Jack bean urease (Canavalia ensiformis, UniProt P07374)
Conditions: substrate urea; phosphate buffer pH […]; […]°C; […] min

Sequence of Jack bean urease (P07374 whole entry, looked up): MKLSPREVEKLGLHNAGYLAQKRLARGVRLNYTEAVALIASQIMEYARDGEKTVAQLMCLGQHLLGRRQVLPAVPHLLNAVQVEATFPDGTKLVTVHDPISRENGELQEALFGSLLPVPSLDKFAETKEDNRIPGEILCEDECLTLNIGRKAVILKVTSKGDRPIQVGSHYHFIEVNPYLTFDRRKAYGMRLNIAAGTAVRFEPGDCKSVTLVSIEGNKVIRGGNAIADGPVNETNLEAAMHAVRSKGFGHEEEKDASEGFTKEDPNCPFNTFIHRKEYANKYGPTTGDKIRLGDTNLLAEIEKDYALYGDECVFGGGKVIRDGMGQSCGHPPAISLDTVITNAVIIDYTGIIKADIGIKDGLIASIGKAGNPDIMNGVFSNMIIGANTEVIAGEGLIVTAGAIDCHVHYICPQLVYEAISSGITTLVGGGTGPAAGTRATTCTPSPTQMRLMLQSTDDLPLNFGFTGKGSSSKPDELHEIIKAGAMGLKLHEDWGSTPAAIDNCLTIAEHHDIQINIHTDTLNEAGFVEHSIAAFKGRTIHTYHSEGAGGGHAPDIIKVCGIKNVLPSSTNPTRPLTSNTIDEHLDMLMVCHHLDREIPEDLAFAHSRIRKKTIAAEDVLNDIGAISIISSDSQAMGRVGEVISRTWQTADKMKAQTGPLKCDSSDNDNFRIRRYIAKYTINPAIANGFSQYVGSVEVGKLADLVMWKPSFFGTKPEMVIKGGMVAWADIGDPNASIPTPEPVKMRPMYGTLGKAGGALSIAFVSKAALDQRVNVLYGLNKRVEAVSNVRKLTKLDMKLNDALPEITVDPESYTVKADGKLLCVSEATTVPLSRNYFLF

SMILES: NC(N)=S [Thiourea]
- Urease IC50 ± SEM: 1.58 ± 0.95 µg/mL
